Laboratory results: patent US20250188043A1 (ReproNovo SA, priority 2023, published 2025)

Assays:
[1] = target: T1, CYP1A2 (Homo sapiens, UniProt P05177); assay: CYP inhibition, pooled human liver microsomes, probe substrates; format: in vitro ADME; details: up to 100 μM
T1 construct: assessed by pooled human liver microsomes using enzyme selective probe substrates; from tissue; host or cells: pooled human liver microsomes
T1 sequence (P05177 1-516): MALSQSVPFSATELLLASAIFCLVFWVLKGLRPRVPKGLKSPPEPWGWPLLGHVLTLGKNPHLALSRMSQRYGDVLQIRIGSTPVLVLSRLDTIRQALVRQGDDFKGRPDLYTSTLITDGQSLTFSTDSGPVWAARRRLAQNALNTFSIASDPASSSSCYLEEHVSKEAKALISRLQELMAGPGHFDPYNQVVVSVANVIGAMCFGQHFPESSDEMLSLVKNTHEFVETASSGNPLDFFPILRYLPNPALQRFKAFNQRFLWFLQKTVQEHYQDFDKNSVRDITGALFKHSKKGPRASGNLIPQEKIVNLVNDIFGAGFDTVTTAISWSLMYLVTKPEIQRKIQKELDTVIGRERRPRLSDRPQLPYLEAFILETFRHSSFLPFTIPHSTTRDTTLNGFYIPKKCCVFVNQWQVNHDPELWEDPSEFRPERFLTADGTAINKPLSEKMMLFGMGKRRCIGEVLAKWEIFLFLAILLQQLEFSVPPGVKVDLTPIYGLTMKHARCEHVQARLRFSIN

[2] = target: T2, CYP2D6 (Homo sapiens, UniProt P10635); assay: as above; format: in vitro ADME; details: up to 100 μM
T2 construct: assessed by pooled human liver microsomes using enzyme selective probe substrates; from tissue; host or cells: pooled human liver microsomes
T2 sequence (P10635 whole entry): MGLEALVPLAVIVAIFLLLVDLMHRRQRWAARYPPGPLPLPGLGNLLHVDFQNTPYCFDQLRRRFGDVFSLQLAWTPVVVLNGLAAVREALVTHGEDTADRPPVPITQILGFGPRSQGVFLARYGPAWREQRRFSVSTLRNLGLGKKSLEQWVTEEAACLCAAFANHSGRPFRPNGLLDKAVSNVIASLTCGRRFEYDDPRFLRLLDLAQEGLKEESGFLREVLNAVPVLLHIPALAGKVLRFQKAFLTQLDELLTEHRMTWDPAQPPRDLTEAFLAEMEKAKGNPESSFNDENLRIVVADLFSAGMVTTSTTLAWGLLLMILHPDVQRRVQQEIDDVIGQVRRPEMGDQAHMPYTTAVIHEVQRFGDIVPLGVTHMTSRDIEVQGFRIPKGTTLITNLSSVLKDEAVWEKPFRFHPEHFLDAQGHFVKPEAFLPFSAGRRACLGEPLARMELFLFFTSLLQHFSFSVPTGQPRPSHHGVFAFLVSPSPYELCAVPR

[3] = target: T3, CYP2C19 (Homo sapiens, UniProt P33261); assay: as above; format: in vitro ADME; details: up to 100 μM
T3 construct: assessed by pooled human liver microsomes using enzyme selective probe substrates; from tissue; host or cells: pooled human liver microsomes
T3 sequence (P33261 whole entry): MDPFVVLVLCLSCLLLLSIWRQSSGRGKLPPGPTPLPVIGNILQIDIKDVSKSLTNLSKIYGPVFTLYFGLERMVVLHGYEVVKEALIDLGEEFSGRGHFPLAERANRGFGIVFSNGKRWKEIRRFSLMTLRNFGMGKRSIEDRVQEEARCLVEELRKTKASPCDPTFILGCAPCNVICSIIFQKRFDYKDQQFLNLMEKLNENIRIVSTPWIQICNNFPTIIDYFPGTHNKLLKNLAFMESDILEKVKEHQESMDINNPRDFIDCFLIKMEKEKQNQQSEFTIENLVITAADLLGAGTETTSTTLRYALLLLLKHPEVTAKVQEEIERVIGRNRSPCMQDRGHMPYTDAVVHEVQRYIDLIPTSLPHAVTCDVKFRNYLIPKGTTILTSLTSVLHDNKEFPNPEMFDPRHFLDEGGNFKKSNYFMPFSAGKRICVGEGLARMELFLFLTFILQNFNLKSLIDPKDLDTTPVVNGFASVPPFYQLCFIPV

[4] = Stability program: degradation product formation and appearance; format: physicochemical; details: for DSC onset after stress / DSC ΔH after stress: Bulk (DSC)
Excerpt: The mixtures of excipients used for this study are as follows: mixture 1 (maltodextrin, microcrystalline cellulose, sodium carboxymethylcellulose, Aerosil 200, Cutina HR; 64:29:5:0.5:1.5 ratio), mixture 2 (microcrystalline cellulose, spray dried lactose, sodium carboxylmethyl starch, Aerosil 200, magnesium stearate; 20:73.5:5:0.5:1 ratio), and mixture 3 (microcrystalline cellulose, mannitol, crospovidone, magnesium stearate; 15:79.5:4:1.5 ratio). The buffered solutions are aqueous.

[5] = target: T4, CYP2C9 (Homo sapiens, UniProt P11712); assay: CYP inhibition, pooled human liver microsomes, probe substrates; format: in vitro ADME; details: up to 100 μM
T4 construct: assessed by pooled human liver microsomes using enzyme selective probe substrates; from tissue; host or cells: pooled human liver microsomes
T4 sequence (P11712 whole entry): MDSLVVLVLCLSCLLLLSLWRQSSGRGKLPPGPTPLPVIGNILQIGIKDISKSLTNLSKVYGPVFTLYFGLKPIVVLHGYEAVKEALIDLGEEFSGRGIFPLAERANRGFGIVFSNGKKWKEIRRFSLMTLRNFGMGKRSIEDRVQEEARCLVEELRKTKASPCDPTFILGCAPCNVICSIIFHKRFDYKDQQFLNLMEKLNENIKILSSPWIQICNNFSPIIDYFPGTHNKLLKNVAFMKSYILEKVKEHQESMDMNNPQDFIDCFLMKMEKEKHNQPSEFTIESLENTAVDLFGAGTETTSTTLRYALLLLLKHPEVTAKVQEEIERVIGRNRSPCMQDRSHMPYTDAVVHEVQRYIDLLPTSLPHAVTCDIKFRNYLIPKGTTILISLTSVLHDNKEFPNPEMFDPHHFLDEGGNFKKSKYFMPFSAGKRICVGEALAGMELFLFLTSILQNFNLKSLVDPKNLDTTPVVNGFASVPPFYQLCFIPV

[6] = Metabolic stability in rat liver microsomes; format: in vitro ADME
[7] = target: T5, breast cancer resistance protein (Homo sapiens, UniProt Q9UNQ0); assay: Breast cancer resistance protein inhibition; format: in vitro ADME; details: at concentrations above 200 μM
T5 sequence (Q9UNQ0 1-655): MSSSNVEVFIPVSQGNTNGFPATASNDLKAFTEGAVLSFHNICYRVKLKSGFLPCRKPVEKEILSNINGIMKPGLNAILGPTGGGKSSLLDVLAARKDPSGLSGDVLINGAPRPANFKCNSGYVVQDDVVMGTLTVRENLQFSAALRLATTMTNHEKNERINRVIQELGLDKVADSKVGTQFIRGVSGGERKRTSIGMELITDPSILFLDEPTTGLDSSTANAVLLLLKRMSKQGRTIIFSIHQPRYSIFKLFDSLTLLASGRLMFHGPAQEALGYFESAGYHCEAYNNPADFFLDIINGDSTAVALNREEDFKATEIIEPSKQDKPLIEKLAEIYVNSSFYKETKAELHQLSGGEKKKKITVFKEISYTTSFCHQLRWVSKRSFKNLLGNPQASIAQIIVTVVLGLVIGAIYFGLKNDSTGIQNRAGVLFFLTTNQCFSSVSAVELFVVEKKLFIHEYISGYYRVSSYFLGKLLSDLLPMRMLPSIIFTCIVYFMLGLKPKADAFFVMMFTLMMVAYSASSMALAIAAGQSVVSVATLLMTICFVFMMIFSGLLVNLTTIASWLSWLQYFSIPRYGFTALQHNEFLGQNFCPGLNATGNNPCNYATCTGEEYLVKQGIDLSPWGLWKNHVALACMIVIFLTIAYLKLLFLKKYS

[8] = Long term storage stability of crystalline Form A leflutrozole; format: physicochemical
Experimental: The test for determination of the amount of related substance impurities uses reverse phase HPLC analysis with UV detection (230 nm). The solvents are acetonitrile/water/diammonium hydrogen phosphate buffer/O-phosphirc acid 85%. The column is Macherey Nagel, Nucleosil 100 C18HD (length=150 mm, internal diameter 3.0 mm) or equivalent L1 USP HPLC Columns.
Stability data under accelerated conditions are for up to 6 months at 40° C./75% RH and up to 3 months at 50° C. […].
Packaging A: Double low density polyethylene bags in fiber drugms; water permeation <14.0 mg/day/L. Packaging D: Brown glass bottles type C sealed in triple laminated foil bags or quadruple laminated foil bags of type B; water permeation <0.5 mg/day/L. Packaging H: Double polythene bags, sealed, in 400 mL mini-metallic drugs; water permeation 5 mg/day/L. Packaging J: HDPE bottles from Nalgene (30 mL) with polypropylene screw caps and sealed in alubags of type B. Packaging K: Polyethylene bag containing the drug inside quadruple laminated foil bags; water permeation <0.5 mg/day/L.

[9] = 2% (or 5%) solution or suspension, 1 day, room temperature, HPMC Cellulose 4000 0.5%
[10] = Solid-state, 1 week, 50° C., 75% RH, 1% in mixture 1
[11] = Solid-state, 1 week, 50° C., 75% RH, 1% in mixture 2
[12] = Solid-state, 1 week, 50° C., 75% RH, 1% in mixture 3
[13] = Solid-state, 1 week, 50° C., tight container, 1% in mixture 1
[14] = Solid-state, 1 week, 50° C., tight container, 1% in mixture 2
[15] = Solid-state, 1 week, 50° C., tight container, 1% in mixture 3
[16] = Solid-state, 1 week, 80° C., 75% RH
[17] = Solid-state, 1 week, 80° C., 75% RH, Bulk (HPLC)
[18] = Solid-state, 1 week, 80° C., tight container
[19] = Solid-state, 1 week, 80° C., tight container, Bulk (HPLC)
[20] = Xenon light (approx. 1200 kLuxh)
[21] = Xenon light (approx. 1200 kLuxh), Bulk (HPLC)
[22] = 36 months, 25° C., double polyethylene liner and black polyethylene keg
[23] = more than 36 months at room temperature

N#Cc1ccc(C(F)(c2ccc(C#N)cc2)n2cncn2)cc1 [leflutrozole, 4-[(4-cyanophenyl)-fluoro-(1,2,4-triazol-1-yl)methyl]benzonitrile]
IC50 [1]: > 50 µM
IC50 [2]: > 50 µM
IC50 [3]: > 50 µM
impurities formed ([4]; mixtures of 1% leflutrozole with various excipients, 1 week, 50° C. and 75% relative humidity): at most 0.5%
IC50 [5]: > 50 µM
CLint scaled [6]: < 4.6 mL/min/kg
half-life [6]: > 5 h
inhibition of breast cancer resistance protein [7]: not determined to be an inhibitor

N#Cc1ccc(C(F)(c2ccc(C#N)cc2)n2cncn2)cc1 [Form A leflutrozole, 4-[(4-cyanophenyl)-fluoro-(1,2,4-triazol-1-yl)methyl]benzonitrile]
CL (appearance, color) ([4]; 0.1% solution or suspension, 1 week, 80° C., Ethanol): No change
CL (appearance, color) ([4]; 0.1% solution or suspension, 1 week, 80° C., Methanol): No change
CL (appearance, color) ([4]; 0.1% solution or suspension, 1 week, 80° C., Water): No change, suspension formed
CL (appearance, color) ([4]; 0.1% solution or suspension, 1 week, 80° C., pH 1): No change, suspension formed
CL (appearance, color) ([4]; 0.1% solution or suspension, 1 week, 80° C., pH 3): No change, suspension formed
form change on storage ([4]; 1 week at 80° C. and 75% relative humidity): no detectable form change
CL (appearance, color) ([4]; 2% (or 5%) solution or suspension, 1 day, room temperature, 0.5% CMC): suspension formed
CL (appearance, color) [4, 9]: suspension formed
DP (degradation product) [4, 9]: 0.0%
CL (appearance, color) [4, 10]: No change
DP (degradation product) [4, 10]: 0.5%
CL (appearance, color) [4, 11]: No change
DP (degradation product) [4, 11]: 0.1%
CL (appearance, color) [4, 12]: No change
DP (degradation product) [4, 12]: 0.4%
CL (appearance, color) [4, 13]: No change
DP (degradation product) [4, 13]: 0.0%
CL (appearance, color) [4, 14]: No change
DP (degradation product) [4, 14]: 0.0%
CL (appearance, color) [4, 15]: No change
DP (degradation product) [4, 15]: 0.1%
DSC onset after stress [4, 16]: 168 °C onset;
DSC ΔH after stress [4, 16]: ΔH = 110.3 J/g
CL (appearance, color) [4, 17]: No change
DP (degradation product) [4, 17]: 0.0%
DSC onset after stress [4, 18]: 168 °C onset;
DSC ΔH after stress [4, 18]: ΔH = 114 J/g
CL (appearance, color) [4, 19]: No change
DP (degradation product) [4, 19]: 0.0%
DSC onset after stress [4, 20]: 169 °C onset;
DSC ΔH after stress [4, 20]: ΔH = 112.6 J/g
CL (appearance, color) [4, 21]: No change
DP (degradation product) [4, 21]: 0.0%
degradation on exposure to xenon lamp (in words) ([4]; xenon lamp): does not degrade
Combined related substance impurities ([8]; 5° C. ± 3° C. in packaging D, Initial): 0.60%
Combined related substance impurities ([8]; 25° C./60% RH in packaging K, 3 months): 0.60%
Combined related substance impurities ([8]; 25° C./60% RH in packaging K, Initial): 0.60%
impurity Q2 (substance of unknown structure) [8, 22]: 0.11 % w/w
impurity compound of formula (III) [8, 22]: 0.14 % w/w
Combined related substance impurities ([8]; 40° C./75% RH in packaging A, 3 months): 0.60%
Combined related substance impurities ([8]; 40° C./75% RH in packaging A, Initial): 0.60%
Combined related substance impurities ([8]; 40° C./75% RH in packaging D, Initial): 0.60%
Combined related substance impurities ([8]; 40° C./75% RH in packaging K, 6 months): 0.60%
Combined related substance impurities ([8]; 40° C./75% RH in packaging K, Initial): 0.60%
Combined related substance impurities ([8]; 50° C./≤30% RH in packaging D, Initial): 0.60%
Combined related substance impurities ([8]; 50° C./≤30% RH in packaging K, Initial): 0.60%
stability of drug substance on storage (in words) ([8]; long term and accelerated storage conditions): very stable under all storage conditions
individual impurity developed [8, 23]: ≤ 0.8 % HPLC peak area
total amount of impurities [8, 23]: ≤ 2.0 % of the total HPLC peak area
time stable at room temperature ([8]; room temperature): more than 36 months
Combined related substance impurities ([8]; −20° C. ± 5° C./ambient RH in packaging D, Initial): 0.60%
Combined related substance impurities ([8]; −20° C. ± 5° C./ambient RH in packaging K, Initial): 0.60%
